Earlier results in patent US11229617B2, “Topical anti-inflammatory compositions” (Achelios Therapeutics, Inc., priority 2016, dated 2022).

CCCCCC(=O)O [hexanoic (caproic) acid]
pKa: 4.88

CC(C)(O)CC(=O)O [hydroxymethyl-butyric acid]
pKa: 4.55
